Reference: patent US8835659B2, “Polysubstituted benzofurans and medicinal applications thereof” (Ikerchem, S.L., priority 2010, dated 2014)
pIC50: −log10 of the molar value.

Target: human SIRT1 (Homo sapiens (Human), UniProt Q96EB6)
Experiment: SIRT1 in vitro deacetylation assay (Fluor-de-Lys, acetylated AMC-labeled p53 peptide)
Type: biochemical
Settings: 50 μM substrate peptide, 500 μM NAD+, 30° C., 2 h; for Emax: SIRT1 activation, read-out: Max (%), percentage of maximum activation achieved; for EC1.5 (concentration raising enzyme activity by 50%): concentration required to increase the enzyme activity by 50%, read-out: EC1.5 (SIRT1 activators); for pIC50: concentration reducing enzyme activity by 50%, read-out: IC50 (SIRT1 inhibitors)
Method: The inhibitory activity is measured as the concentration of compound required to reduce the enzyme activity by 50% (IC50).
Activation in this assay is measured both as the concentration of compound required to increase the enzyme activity by 50% (EC1.5) as well as by the percentage of maximum activation achieved (Max %) (see, FIG. 1).
The reactions were carried out in a 96-well microplate for fluorometry in a 50 μl reaction volume. After the deacetylation reaction, Fluor-de-Lys-Developer II (BioMol. Cat. #KI-176) was added to each well to digest the deacetylated substrate, thus producing the fluorescent signal. The reaction was allowed to develop for 45 minutes at 30° C. with 5% CO2; then the fluorescent signal was measured with an excitation wavelength at 360 nm and an emission wavelength at 460 nm in a microplate-reading fluorometer (GeminiXS; Molecular Devices, Sunnyvale, Calif.). […] All experiments were performed in triplicate.

human SIRT1, sequence (Q96EB6 whole entry): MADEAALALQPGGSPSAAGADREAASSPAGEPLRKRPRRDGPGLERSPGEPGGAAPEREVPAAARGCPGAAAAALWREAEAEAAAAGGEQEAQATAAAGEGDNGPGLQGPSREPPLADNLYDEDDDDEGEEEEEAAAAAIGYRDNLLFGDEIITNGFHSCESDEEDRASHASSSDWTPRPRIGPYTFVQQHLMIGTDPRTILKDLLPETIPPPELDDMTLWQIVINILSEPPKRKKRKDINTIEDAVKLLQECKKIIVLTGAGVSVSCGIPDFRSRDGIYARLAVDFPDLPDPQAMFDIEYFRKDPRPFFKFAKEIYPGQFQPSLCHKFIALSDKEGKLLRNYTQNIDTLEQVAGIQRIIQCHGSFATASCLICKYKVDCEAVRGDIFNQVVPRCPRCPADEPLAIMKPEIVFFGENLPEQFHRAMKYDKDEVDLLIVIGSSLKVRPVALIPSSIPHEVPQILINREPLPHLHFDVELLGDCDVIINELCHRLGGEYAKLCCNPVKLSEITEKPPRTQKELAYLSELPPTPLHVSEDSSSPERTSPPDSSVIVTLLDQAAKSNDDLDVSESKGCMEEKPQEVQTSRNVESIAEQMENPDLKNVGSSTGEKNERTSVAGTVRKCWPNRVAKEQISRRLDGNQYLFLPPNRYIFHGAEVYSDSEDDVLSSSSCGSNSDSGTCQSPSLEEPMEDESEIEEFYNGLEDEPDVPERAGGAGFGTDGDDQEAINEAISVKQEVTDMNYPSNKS

| Emax [%] | EC1.5 (concentration raising enzyme activity by 50%) [nM] | pIC50 | SMILES |
| --- | --- | --- | --- |
| 451 | 11.5 | – | Oc1cc(O)cc(-c2cc3ccc(O)cc3o2)c1 [5-(6-hydroxy-1-benzofuran-2-yl)benzene-1,3-diol, reference compound] |
| 407 | 1.32 | – | Oc1cc(O)cc(-c2cc3c(O)cc(O)cc3o2)c1 [Example 8, 2-(3,5-dihydroxyphenyl)-1-benzofuran-4,6-diol] |
| 444 | 3.55 | – | Oc1ccc(-c2cc3c(O)cc(O)cc3o2)cc1 [Example 9, 2-(4-hydroxyphenyl)-1-benzofuran-4,6-diol] |
| 279 | 13.5 | – | Oc1cc(O)c2cc(-c3ccc(F)cc3)oc2c1 [Example 10, 2-(4-fluorophenyl)-1-benzofuran-4,6-diol] |
| – | – | 5.74 | Oc1cc(O)c2cc(-c3cc(O)c(O)c(O)c3)oc2c1 [Example 11, 5-(4,6-dihydroxy-1-benzofuran-2-yl)benzene-1,2,3-triol] |
| 130 | – | – | COc1ccc(-c2cc3c(O)cc(O)cc3o2)c(OC)n1 [Example 12, 2-(2,6-dimethoxypyridin-3-yl)benzofuran-4,6-diol] |
| – | – | 4.44 | Oc1cc(O)c2cc(-c3cc(F)cc(F)c3)oc2c1 [Example 13, 2-(3,5-difluorophenyl)benzofuran-4,6-diol] |
| – | – | 4.64 | Oc1ccc(-c2coc3cc(O)cc(O)c23)cc1 [Example 15, 3-(4-hydroxyphenyl)-1-benzofuran-4,6-diol] |
| – | – | 3.56 | Oc1cc(O)c2c(-c3cc(F)cc(F)c3)coc2c1 [Example 16, 3-(3,5-difluorophenyl)-1-benzofuran-4,6-diol] |
| – | – | 3.72 | Oc1cc(O)c2c(-c3ccc(F)cc3)coc2c1 [Example 19, 3-(4-fluorophenyl)benzofuran-4,6-diol] |
| – | – | 4.12 | Oc1cc(O)c2c(-c3cc(F)cc(F)c3)c(Br)oc2c1 [Example 20, 2-bromo-3-(3,5-difluorophenyl)benzofuran-4,6-diol] |
| 475 | – | – | Oc1ccc(C=Cc2cc(O)cc(O)c2)cc1 [Resveratrol, resveratrol, reference compound] |
